1 compound from US20240261294A1, “METHOD FOR TREATING IDH INHIBITOR-RESISTANT SUBJECTS” (Eli Lilly and Company, priority 2021, published 2024) can be followed below.

For assay [1], the target named is T1, IDH2 R140Q_P167R cis (Homo sapiens, UniProt P48735, P167R/R140Q).
T1 construct: expressed in transfected cells; host or cells: U-87 MG
T1 sequence (P48735 40-452 R140Q/P167R): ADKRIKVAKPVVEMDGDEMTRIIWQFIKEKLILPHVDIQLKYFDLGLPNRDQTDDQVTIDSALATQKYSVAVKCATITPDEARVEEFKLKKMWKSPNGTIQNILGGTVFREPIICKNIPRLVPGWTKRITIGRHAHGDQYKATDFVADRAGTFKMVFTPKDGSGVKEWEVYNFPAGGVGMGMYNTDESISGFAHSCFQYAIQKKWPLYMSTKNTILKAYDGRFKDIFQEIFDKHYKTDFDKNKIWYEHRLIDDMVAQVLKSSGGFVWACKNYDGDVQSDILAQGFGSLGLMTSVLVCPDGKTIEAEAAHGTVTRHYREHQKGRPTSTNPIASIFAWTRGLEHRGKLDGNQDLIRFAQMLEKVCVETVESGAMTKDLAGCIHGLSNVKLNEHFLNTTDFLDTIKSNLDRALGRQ
Briefly: Inhibition of 2-HG production in IDH2 mutant U-87 MG cells. It is filed as cell-based. The settings on record: read-out: Relative IC50 (nM) Mean, inhibition of 2-HG production.

Assay [2] addresses T2, IDH2 R172K_P167R cis (Homo sapiens, UniProt P48735, P167R/R172K).
T2 construct: expressed in transfected cells; host or cells: U-87 MG
T2 sequence (P48735 40-452 P167R/R172K): T1 sequence (P48735 40-452 R140Q/P167R) with Q101R, R133K
The description is as above. It is filed as cell-based. The settings on record: 16 hours incubation, 50K cells/well, 100 μl media/well, read-out: Relative IC50 (nM) Mean, inhibition of 2-HG production.

Where a chain is given by its changes, count along the chain named. Where two headings read alike, the source gives them in different places.

As to `C=CC(=O)N1CCN([C@@H](CC2CC2)c2ccc([C@H](C)Nc3ncc4c(n3)N(CC)C(=O)OC4)cc2)CC1` [Compound A, 7-[[(1S)-1-[4-[(1S)-2-cyclopropyl-1-(4-prop-2-enoylpiperazin-1-yl)ethyl]phenyl]ethyl]amino]-1-ethyl-4H-pyrimido[4,5-d][1,3]oxazin-2-one], the IC50 was determined as 639 nM in assay [1] (16 hours incubation, 50K cells/well, 100 μl media/well); 104 nM in assay [1] (72 hours incubation, 12.5K cells/well); 119 nM in assay [2].

As a reminder, the IC50 is the midpoint of a concentration-inhibition curve.
